Laboratory results taken from patent US9365522B2, “Pyrazole amide derivative” (AMGEN INC., priority 2015, dated 2016).

Target: T1, ligand binding domain of human ROR gamma (Homo sapiens, UniProt P51449)
T1 construct: NM_001001523; expressed in transfected cells; host or cells: HEK293T
T1 sequence (P51449 247-497 isoform P51449-2): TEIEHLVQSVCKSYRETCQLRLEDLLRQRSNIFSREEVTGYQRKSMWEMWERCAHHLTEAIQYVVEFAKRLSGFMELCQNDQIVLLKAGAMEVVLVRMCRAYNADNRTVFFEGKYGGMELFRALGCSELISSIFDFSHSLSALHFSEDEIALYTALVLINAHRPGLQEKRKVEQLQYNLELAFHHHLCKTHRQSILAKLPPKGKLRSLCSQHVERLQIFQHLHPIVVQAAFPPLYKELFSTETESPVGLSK
Assay: ROR gamma reporter gene assay (GAL4-RORγ LBD luciferase, Dual-Glo)
Format: cell-based
Settings: HEK293T cells transfected with pM-ROR gamma, 8 concentrations 3.5 nM to 10.5 μM, 24 h incubation; read-out: result (pIC50, inhibition of RORγ transcriptional activity) (converted)
Method in brief: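 Transient GAL4-RORγ LBD (aa 247-497) / 5×UAS-luc / pRL-CMV cotransfection in HEK293T, charcoal-stripped 10% FBS. 8-pt dose, 3.5 nM–10.5 μM, 0.075% DMSO final. 24 h, 37 °C, 5% CO2. Dual-Glo firefly/renilla readout; pIC50 from curve fit.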

SMILES	IC50 [pM]
CC1(C)[C@@H]2C[C@H](N(CC(O)c3c(Cl)cccc3OC(F)F)C(=O)c3cnn([C@H]4CC[C@](C)(C(=O)O)CC4)c3C(F)(F)F)C[C@@H]21 (stereo partly drawn) [Example 399, trans-4-(4-((2-(2-chloro-6-(difluoromethoxy)phenyl)-2-hydroxyethyl)((1R,3r,5S)-6,6-dimethylbicyclo[3.1.0]hexan-3-yl)carbamoyl)-5-(trifluoromethyl)-1H-pyrazol-1-yl)-1-methylcyclohexanecarboxylic acid]	87100
CC1(C)[C@@H]2C[C@H](N(CC(=O)c3c(Cl)cccc3C(F)(F)F)C(=O)c3cnn(C45CCC(C(=O)O)(CC4)CC5)c3C(F)(F)F)C[C@@H]21 [Example 247, 4-(4-((2-(2-chloro-6-(trifluoromethyl)phenyl)-2-oxoethyl)-((1R,3r,5S)-6,6-dimethyl-3-bicyclo[3.1.0]hexanyl)carbamoyl)-5-(trifluoromethyl)pyrazol-1-yl)bicyclo[2.2.2]octane-1-carboxylic acid]	32400
O=C(CN(C(=O)c1cnn([C@H]2CC[C@H](C(=O)O)CC2)c1C(F)(F)F)C1Cc2ccccc2C1)c1c(Cl)cncc1Cl [Example 180, trans-4-(4-((2-(3,5-dichloropyridin-4-yl)-2-oxoethyl)-(2,3-dihydro-1H-inden-2-yl)carbamoyl)-5-(trifluoromethyl)pyrazol-1-yl)cyclohexane-1-carboxylic acid]	112000
Cc1cc(C)c(C(=O)CN(Cc2cc(F)cc(F)c2)C(=O)c2cnn([C@H]3CC[C@H](C(=O)O)CC3)c2C(F)(F)F)c(Cl)c1 [Example 269, trans-4-(4-((2-(2-chloro-4,6-dimethylphenyl)-2-oxoethyl)-((3,5-difluorophenyl)methyl)carbamoyl)-5-(trifluoromethyl)pyrazol-1-yl)cyclohexane-1-carboxylic acid]	8130
O=C(CN(Cc1cc(F)cc(F)c1)C(=O)c1cnn([C@H]2CC[C@H](C(=O)O)CC2)c1C(F)(F)F)c1c(Cl)n[nH]c1Cl [Example 209, trans-4-(4 ((2-(3,5-dichloro-1H-pyrazol-4-yl)-2-oxoethyl)-((3,5-difluorophenyl)methyl)carbamoyl)-5-(trifluoromethyl)pyrazol-1-yl)cyclohexane-1-carboxylic acid]	> 1e+07
Cc1coc(C)c1C(=O)CN(Cc1cc(F)cc(F)c1)C(=O)c1cnn([C@H]2CC[C@H](C(=O)O)CC2)c1C(F)(F)F [Example 63, trans-4-(4-((3,5-difluorobenzyl)(2-(2,4-dimethylfuran-3-yl)-2-oxoethyl)carbamoyl)-5-(trifluoromethyl)-1H-pyrazol-1-yl)cyclohexanecarboxylic acid]	3.39e+06
COc1ccccc1[C@H](O)CN(C(=O)c1cnn([C@H]2CC[C@](C)(C(=O)O)CC2)c1C(F)(F)F)[C@H]1C[C@@H]2[C@H](C1)C2(C)C [Example 371, trans-4-(4-(((1R,3r,5S)-6,6-dimethylbicyclo[3.1.0]hexan-3-yl)(2-hydroxy-2-(2-methoxyphenyl)ethyl)carbamoyl)-5-(trifluoromethyl)-1H-pyrazol-1-yl)-1-methylcyclohexanecarboxylic acid]	5.37e+06
CC1(C)[C@@H]2C[C@H](N(C[C@H](O)c3c(F)cccc3Cl)C(=O)c3cnn([C@H]4CC[C@](C)(C(=O)O)CC4)c3C(F)(F)F)C[C@@H]21 [Example 354, trans-4-(4-((2-(2-chloro-6-fluorophenyl)-2-hydroxyethyl)((1R,3r,5S)-6,6-dimethylbicyclo[3.1.0]hexan-3-yl)carbamoyl)-5-(trifluoromethyl)-1H-pyrazol-1-yl)-1-methylcyclohexanecarboxylic acid]	513000
COc1cncc(Cl)c1C(=O)CN(Cc1ccc(F)cc1)C(=O)c1cnn([C@H]2CC[C@H](C(=O)O)CC2)c1C(F)(F)F [Example 188, trans-4-(4-((2-(3-chloro-5-methoxypyridin-4-yl)-2-oxoethyl)-((4-fluorophenyl)methyl)carbamoyl)-5-(trifluoromethyl)pyrazol-1-yl)cyclohexane-1-carboxylic acid]	275000

Results, then the compound that gave them:

IC50 [pM]	SMILES
3980	Cc1cc(Cl)c(C(=O)CN(C(=O)c2cnn([C@H]3CC[C@](C)(C(=O)O)CC3)c2C(F)(F)F)C2CCC(C)(C)CC2)c(Cl)c1 [Example 227, trans-4-(4-((2-(2,6-dichloro-4-methylphenyl)-2-oxoethyl)-(4,4-dimethylcyclohexyl)carbamoyl)-5-(trifluoromethyl)pyrazol-1-yl)-1-methylcyclohexane-1-carboxylic acid]
324000	COc1cccc(Cl)c1C(=O)CN(CC#CC(C)(C)C)C(=O)c1cnn([C@H]2CC[C@](C)(C(=O)O)CC2)c1C(F)(F)F [Example 214, trans-4-(4-((2-(2-chloro-6-methoxyphenyl)-2-oxoethyl)-(4,4-dimethylpent-2-ynyl)carbamoyl)-5-(trifluoromethyl)pyrazol-1-yl)-1-methylcyclohexane-1-carboxylic acid]
100000	Cc1cc(Cl)c(C(=O)CN(CC#CC(C)(C)C)C(=O)c2cnn([C@H]3CC[C@](C)(C(=O)O)CC3)c2C(F)(F)F)c(Cl)c1 [Example 206, trans-4-(4-((2-(2,6-dichloro-4-methylphenyl)-2-oxoethyl)-(4,4-dimethylpent-2-ynyl)carbamoyl)-5-(trifluoromethyl)pyrazol-1-yl)-1-methylcyclohexane-1-carboxylic acid]
29500	CC1(C)CCC(N(CC(=O)c2c(Cl)cccc2Cl)C(=O)c2cnn([C@H]3CC[C@](C)(C(=O)O)CC3)c2Cl)CC1 [Example 389, trans-4-(5-chloro-4-((2-(2,6-dichlorophenyl)-2-oxoethyl)-(4,4-dimethylcyclohexyl)carbamoyl)pyrazol-1-yl)-1-methylcyclohexane-1-carboxylic acid]
5.62e+06	CN1CCC(N(CC(=O)c2c(Cl)cc(F)cc2Cl)C(=O)c2cnn([C@H]3CC[C@](C)(C(=O)O)CC3)c2C(F)(F)F)CC1 [Example 295, trans-4-(4-((2-(2,6-dichloro-4-fluorophenyl)-2-oxoethyl)-(1-methylpiperidin-4-yl)carbamoyl)-5-(trifluoromethyl)pyrazol-1-yl)-1-methylcyclohexane-1-carboxylic acid]
174000	CC1(C)CCC(CN(CC(=O)c2c(Cl)cncc2Cl)C(=O)c2cnn([C@H]3CC[C@H](C(=O)O)CC3)c2C(F)(F)F)CO1 (some centres unmarked) [Example 130]
2950	C[C@]1(C(=O)O)CC[C@H](n2ncc(C(=O)N(CC(=O)c3c(Cl)cc(Cl)cc3Cl)CC3(F)CCCC3)c2C(F)(F)F)CC1 [Example 225, trans-4-(4-((1-fluorocyclopentyl)methyl-(2-oxo-2-(2,4,6-trichlorophenyl)ethyl)carbamoyl)-5-(trifluoromethyl)pyrazol-1-yl)-1-methylcyclohexane-1-carboxylic acid]
20000	CC(C)(C)OCCN(CC(=O)c1c(Cl)cncc1Cl)C(=O)c1cnn([C@H]2CC[C@](C)(C(=O)O)CC2)c1C(F)(F)F [Example 318, trans-4-(4-((2-(3,5-dichloropyridin-4-yl)-2-oxoethyl)-(2-((2-methylpropan-2-yl)oxy)ethyl)carbamoyl)-5-(trifluoromethyl)pyrazol-1-yl)-1-methylcyclohexane-1-carboxylic acid]
